This note sets out measurements from ChEMBL document CHEMBL5696442, “Discovery of type II inhibitors of TGFβ-activated kinase 1 (TAK1) and mitogen-activated protein kinase kinase kinase kinase 2 (MAP4K2)” (J Med Chem, 2015).

The source made the active and inactive calls. No cut-off for these calls is given here.

The IC50 is the concentration at which inhibition is half-maximal. As usually defined, the inhibition is the drop in the measured response relative to a control, in per cent.

One experiment concerns BaF3. Description: Antiproliferative activity against parental mouse BaF3 cells assessed reduction in cell viability measured after 48 hrs by Celltiter-glo assay. Format: functional, cell-based. To be noted: BaF3, 48 h.
The target of experiment [1] is Mitogen-activated protein kinase 11 (Homo sapiens) (UniProt Q15759). In words: Inhibition of p38 beta in human A-375 cells at 5 uM by KiNativ Profiling analysis relative to control. It is filed as cell-based.
The target of experiment [2] is Mitogen-activated protein kinase kinase kinase 10 (Homo sapiens) (UniProt Q02779). Description: Inhibition of MLK2 (unknown origin) at 1 uM by Ambit Kinomescan binding assay relative to control; values are per cent of control.
For experiment [3], the system named is Proto-oncogene tyrosine-protein kinase receptor Ret (Homo sapiens), P07949 [V804L]. In words: Inhibition of RET V804L mutant (unknown origin) at 1 uM by Ambit Kinomescan binding assay relative to control; values are per cent of control.
In experiment [4] the test system is Leucine-rich repeat serine/threonine-protein kinase 2 (Homo sapiens), Q5S007 [G2019S]. In words: Inhibition of LRRK2 G2019S mutant (unknown origin) at 1 uM by Ambit Kinomescan binding assay relative to control; values are per cent of control.
The target of experiment [5] is Serine/threonine-protein kinase DCLK1 (Homo sapiens) (UniProt O15075). In words: Inhibition of DCAMKL1 (unknown origin) at 10 uM by Ambit Kinomescan binding assay.
Experiment [6] concerns the target Hepatocyte growth factor receptor (Homo sapiens) (UniProt P08581). In words: Inhibition of MET (unknown origin) at 10 uM by Ambit Kinomescan binding assay.
Experiment [7] concerns the target T1, Mitogen-activated protein kinase kinase kinase 5 (Homo sapiens) (UniProt Q99683).
T1 sequence (whole entry): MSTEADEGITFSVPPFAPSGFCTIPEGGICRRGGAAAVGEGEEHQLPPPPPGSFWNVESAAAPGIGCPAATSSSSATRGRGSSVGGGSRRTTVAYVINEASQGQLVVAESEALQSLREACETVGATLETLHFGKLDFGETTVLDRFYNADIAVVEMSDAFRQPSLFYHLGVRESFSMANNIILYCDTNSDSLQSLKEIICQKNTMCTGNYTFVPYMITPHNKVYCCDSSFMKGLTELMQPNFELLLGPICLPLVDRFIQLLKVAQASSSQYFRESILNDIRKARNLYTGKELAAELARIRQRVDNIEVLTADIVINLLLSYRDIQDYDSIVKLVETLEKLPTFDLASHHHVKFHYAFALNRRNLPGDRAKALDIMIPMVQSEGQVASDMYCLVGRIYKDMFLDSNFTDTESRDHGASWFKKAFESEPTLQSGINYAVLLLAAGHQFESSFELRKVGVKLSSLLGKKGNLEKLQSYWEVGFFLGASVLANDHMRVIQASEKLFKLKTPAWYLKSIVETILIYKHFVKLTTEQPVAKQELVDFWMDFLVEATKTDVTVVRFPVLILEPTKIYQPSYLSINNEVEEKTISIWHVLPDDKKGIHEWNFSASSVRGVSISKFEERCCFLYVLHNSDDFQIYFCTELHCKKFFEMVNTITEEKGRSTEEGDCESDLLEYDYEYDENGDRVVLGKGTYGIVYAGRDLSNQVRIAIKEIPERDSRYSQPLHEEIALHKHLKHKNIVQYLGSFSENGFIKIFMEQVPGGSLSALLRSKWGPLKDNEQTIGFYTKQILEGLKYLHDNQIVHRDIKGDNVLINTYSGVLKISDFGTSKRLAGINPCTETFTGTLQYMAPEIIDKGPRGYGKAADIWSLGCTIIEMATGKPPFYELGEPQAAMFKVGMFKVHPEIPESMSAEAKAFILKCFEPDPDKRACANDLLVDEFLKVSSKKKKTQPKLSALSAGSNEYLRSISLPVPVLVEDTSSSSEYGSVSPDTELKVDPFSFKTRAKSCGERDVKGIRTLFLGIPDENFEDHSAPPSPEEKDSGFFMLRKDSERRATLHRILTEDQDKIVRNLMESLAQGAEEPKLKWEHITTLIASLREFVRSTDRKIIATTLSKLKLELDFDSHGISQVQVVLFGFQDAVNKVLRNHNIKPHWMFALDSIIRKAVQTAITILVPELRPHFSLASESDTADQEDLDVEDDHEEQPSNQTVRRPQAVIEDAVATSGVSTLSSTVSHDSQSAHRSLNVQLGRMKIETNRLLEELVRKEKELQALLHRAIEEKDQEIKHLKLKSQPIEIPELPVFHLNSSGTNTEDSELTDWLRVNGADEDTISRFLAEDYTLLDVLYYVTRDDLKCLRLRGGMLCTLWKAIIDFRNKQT
Description: Inhibition of MAP3K5 Lys1 labeling site harbouring IAIKEIPER in human A-375 cells at 5 uM by KiNativ Profiling analysis relative to control. Format: cell-based.

Experiment [8] concerns the target T2, Phosphatidylinositol 5-phosphate 4-kinase type-2 gamma (Homo sapiens) (UniProt Q8TBX8).
T2 sequence (whole entry): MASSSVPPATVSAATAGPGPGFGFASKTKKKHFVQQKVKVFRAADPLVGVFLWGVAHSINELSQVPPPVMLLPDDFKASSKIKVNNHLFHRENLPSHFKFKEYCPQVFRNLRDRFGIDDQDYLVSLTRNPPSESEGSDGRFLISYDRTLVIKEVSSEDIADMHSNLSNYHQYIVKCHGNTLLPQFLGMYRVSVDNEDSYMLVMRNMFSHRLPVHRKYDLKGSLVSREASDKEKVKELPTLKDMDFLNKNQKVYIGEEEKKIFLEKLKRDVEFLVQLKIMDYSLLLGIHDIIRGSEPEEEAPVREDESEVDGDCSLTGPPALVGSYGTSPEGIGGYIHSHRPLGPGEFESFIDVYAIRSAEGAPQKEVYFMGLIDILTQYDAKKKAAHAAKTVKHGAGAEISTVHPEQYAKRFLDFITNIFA
Description: Inhibition of PIP4K2C ATP labeling site harbouring TLVIKEVSSEDIADMHSNLSNYHQYIVK in human A-375 cells at 0.05 uM by KiNativ Profiling analysis relative to control. Format: cell-based.

Experiment [9] addresses Tyrosine-protein kinase Yes (Homo sapiens) (UniProt P07947). Description: Inhibition of YES ACT labeling site in human Huh-7 cells at 1 uM by KiNativ Profiling analysis relative to control. Format: cell-based.
Experiment [10] addresses Ribosomal protein S6 kinase alpha-3 (Homo sapiens) (UniProt P51812). Description: Inhibition of RSK2 domain1 ATP labeling site in human Huh-7 cell lysate at 1 uM by KiNativ Profiling analysis relative to control. It is filed as subcellular.

Serine/threonine-protein kinase DCLK1 (Homo sapiens), sequence (O15075 whole entry): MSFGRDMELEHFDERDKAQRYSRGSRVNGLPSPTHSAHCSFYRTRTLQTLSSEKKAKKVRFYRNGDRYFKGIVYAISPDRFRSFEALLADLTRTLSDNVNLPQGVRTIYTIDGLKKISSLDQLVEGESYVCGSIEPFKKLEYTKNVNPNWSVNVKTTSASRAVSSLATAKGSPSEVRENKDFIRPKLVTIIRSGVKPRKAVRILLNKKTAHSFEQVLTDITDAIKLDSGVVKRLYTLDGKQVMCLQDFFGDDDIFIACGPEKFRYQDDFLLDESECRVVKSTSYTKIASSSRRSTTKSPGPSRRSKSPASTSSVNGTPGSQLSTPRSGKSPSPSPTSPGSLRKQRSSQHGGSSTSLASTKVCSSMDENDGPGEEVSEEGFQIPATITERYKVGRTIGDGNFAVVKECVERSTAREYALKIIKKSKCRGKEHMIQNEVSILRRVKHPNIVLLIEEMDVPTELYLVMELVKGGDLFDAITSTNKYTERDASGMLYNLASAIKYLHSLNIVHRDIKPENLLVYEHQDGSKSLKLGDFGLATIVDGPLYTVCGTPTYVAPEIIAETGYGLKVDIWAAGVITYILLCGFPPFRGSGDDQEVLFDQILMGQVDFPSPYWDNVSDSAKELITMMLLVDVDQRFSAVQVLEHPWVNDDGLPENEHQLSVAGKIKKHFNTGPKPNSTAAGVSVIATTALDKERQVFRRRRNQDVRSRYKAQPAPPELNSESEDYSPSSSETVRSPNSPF
Hepatocyte growth factor receptor (Homo sapiens), sequence (P08581 whole entry): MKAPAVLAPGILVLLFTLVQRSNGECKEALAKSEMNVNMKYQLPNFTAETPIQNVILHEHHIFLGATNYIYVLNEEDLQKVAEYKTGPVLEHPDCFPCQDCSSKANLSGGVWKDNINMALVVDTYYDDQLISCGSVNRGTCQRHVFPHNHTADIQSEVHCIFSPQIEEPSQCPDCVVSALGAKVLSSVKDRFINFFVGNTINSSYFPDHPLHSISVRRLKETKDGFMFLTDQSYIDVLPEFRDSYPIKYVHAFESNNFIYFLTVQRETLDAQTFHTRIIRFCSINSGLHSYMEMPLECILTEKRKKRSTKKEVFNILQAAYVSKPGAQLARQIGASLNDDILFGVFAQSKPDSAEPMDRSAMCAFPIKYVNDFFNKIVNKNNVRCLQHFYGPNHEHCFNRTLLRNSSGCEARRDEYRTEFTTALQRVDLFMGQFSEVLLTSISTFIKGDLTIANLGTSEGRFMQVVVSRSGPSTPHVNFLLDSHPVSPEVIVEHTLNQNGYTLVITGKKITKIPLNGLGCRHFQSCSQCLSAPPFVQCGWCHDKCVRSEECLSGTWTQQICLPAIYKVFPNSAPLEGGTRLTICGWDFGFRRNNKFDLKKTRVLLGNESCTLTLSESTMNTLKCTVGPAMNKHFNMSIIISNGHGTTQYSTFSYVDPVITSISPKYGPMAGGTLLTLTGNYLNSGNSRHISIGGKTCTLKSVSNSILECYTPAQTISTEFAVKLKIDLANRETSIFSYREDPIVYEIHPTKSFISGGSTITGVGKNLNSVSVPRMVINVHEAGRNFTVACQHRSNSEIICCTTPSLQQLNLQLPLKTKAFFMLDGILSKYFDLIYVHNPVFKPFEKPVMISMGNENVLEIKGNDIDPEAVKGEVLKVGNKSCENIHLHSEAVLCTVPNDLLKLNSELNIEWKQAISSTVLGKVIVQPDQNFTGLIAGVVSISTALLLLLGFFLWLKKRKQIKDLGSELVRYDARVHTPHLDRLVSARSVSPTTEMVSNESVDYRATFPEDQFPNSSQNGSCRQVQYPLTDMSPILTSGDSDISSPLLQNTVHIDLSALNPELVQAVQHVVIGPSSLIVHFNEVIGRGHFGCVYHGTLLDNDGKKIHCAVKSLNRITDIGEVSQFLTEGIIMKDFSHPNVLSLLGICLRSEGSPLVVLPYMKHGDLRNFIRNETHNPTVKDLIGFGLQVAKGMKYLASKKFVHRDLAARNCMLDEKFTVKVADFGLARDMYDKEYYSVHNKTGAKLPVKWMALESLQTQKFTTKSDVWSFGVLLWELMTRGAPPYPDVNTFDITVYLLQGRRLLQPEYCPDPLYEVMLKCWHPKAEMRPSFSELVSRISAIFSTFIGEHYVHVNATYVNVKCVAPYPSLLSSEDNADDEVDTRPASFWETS
Ribosomal protein S6 kinase alpha-3 (Homo sapiens), sequence (P51812 whole entry, the tested form may be a part): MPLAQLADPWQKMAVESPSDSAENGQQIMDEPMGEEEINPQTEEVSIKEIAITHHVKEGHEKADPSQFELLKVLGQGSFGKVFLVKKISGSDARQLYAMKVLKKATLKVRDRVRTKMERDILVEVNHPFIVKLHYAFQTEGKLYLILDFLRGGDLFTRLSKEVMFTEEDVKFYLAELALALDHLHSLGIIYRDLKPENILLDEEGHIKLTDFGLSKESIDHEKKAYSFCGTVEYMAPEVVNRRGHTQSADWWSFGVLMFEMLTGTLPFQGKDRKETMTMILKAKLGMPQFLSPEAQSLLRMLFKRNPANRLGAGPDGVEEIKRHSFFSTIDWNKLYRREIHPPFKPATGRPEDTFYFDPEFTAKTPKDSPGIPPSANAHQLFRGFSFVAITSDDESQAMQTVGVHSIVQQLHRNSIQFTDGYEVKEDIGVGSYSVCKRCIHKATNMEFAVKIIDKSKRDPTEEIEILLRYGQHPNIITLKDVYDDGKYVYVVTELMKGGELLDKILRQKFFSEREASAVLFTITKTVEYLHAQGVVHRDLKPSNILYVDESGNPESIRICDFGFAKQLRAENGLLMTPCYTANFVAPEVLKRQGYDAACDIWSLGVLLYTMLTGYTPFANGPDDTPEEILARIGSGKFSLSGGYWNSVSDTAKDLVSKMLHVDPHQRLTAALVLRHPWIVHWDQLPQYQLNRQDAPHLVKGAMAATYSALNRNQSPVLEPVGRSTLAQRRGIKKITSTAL
Proto-oncogene tyrosine-protein kinase receptor Ret (Homo sapiens), P07949 [V804L], sequence (P07949 whole entry V804L): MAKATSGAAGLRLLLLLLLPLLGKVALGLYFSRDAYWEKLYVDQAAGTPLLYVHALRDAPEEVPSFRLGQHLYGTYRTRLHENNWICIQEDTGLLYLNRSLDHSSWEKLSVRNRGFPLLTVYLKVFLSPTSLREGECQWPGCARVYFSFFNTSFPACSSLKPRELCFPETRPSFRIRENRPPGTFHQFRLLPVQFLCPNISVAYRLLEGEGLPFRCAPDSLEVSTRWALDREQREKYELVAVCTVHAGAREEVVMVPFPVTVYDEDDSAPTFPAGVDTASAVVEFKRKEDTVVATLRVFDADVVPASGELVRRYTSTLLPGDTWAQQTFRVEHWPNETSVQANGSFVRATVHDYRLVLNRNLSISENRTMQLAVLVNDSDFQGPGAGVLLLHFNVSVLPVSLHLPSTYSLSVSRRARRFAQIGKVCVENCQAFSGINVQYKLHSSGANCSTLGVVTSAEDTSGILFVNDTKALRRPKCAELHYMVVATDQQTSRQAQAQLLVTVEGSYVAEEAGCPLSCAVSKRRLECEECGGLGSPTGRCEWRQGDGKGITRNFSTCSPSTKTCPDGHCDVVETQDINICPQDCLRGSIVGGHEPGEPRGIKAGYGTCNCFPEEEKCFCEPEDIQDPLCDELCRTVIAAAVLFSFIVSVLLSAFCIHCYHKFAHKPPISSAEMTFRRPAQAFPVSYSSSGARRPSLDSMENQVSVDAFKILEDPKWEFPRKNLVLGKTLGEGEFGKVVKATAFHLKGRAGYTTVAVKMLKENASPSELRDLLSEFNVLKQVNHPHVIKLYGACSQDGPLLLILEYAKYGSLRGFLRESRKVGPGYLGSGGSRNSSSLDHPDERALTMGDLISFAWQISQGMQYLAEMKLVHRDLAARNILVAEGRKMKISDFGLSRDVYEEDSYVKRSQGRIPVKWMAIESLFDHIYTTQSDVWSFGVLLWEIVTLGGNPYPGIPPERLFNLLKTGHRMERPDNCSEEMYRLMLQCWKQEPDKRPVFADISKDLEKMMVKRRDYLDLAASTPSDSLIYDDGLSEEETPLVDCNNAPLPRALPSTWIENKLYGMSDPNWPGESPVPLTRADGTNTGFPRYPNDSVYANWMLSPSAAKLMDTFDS
Mitogen-activated protein kinase 11 (Homo sapiens), sequence (Q15759 whole entry): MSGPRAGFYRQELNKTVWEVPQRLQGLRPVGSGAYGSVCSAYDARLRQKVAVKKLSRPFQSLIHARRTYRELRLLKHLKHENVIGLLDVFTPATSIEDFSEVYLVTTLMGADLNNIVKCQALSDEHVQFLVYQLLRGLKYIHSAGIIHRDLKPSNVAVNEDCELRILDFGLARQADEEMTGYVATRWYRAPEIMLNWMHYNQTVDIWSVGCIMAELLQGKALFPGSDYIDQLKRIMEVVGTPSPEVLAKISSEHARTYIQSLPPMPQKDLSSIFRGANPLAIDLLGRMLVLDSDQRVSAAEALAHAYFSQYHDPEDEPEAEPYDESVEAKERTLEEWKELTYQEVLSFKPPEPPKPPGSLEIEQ
Tyrosine-protein kinase Yes (Homo sapiens), sequence (P07947 2-543 limits assumed): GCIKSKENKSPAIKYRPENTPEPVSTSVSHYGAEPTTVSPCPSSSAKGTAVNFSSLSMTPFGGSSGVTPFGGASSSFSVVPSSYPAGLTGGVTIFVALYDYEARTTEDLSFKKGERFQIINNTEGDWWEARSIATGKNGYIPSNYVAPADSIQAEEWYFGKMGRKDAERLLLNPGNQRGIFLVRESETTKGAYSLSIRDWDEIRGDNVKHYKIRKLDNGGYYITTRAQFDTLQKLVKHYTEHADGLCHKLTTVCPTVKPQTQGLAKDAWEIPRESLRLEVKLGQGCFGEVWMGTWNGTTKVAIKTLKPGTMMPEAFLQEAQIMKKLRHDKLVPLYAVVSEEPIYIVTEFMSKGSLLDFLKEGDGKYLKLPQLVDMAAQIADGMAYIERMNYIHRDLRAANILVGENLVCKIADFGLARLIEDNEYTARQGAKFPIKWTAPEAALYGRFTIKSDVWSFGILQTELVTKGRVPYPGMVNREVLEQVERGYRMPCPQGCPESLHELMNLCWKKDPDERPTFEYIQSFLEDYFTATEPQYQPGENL

For the compound `CCN1CCN(Cc2ccc(NC(=O)c3ccc(C)c(/C=C/c4cnc5[nH]ccc5c4OC)c3)cc2C(F)(F)F)CC1`, the IC50 in the experiment with BaF3 was 4.02 µM. Also, in experiment [1], the inhibition is 79.9%. The results for the residual activity in [2] and in experiment [4] were 53% and 71%, respectively. In addition, the percent of control in experiment [3] was 3.4%.
On to `CCN1CCN(Cc2ccc(NC(=O)c3ccc(C)c(Oc4ccnc5[nH]ccc45)c3)cc2C(F)(F)F)CC1`, for which the inhibition entry in [5] and in experiment [6] was “inactive” throughout. Besides, the inhibition is -0.6% in experiment [7], -1.1% in [8] and -0.3% in experiment [9].
As to `CNc1cc(Oc2cc(C(=O)Nc3cc(N4CCN(C)CC4)cc(C(F)(F)F)c3)ccc2C)ncn1`, in experiment [10], the inhibition was -2.6%.
